target: full-length recombinant human FYN A (Homo sapiens (Human), UniProt P06241); test: ADP-Glo Kinase Assay of FYN kinase inhibition; assay type: biochemical; conditions: primary screen, initial compounds
In short: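 GST-tagged full-length FYN A (baculovirus, Sf9) at 3 pg preincubated 30 min RT with compound (10-point 3-fold series from 10 μM) in Tris pH 7.5/MgCl2 buffer. 12-mer tyrosine peptide plus 12.5 pmol ATP added, 90 min RT; ADP measured by ADP-Glo luminescence, IC50 from dose-response.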

Sequence of full-length recombinant human FYN A (P06241 whole entry): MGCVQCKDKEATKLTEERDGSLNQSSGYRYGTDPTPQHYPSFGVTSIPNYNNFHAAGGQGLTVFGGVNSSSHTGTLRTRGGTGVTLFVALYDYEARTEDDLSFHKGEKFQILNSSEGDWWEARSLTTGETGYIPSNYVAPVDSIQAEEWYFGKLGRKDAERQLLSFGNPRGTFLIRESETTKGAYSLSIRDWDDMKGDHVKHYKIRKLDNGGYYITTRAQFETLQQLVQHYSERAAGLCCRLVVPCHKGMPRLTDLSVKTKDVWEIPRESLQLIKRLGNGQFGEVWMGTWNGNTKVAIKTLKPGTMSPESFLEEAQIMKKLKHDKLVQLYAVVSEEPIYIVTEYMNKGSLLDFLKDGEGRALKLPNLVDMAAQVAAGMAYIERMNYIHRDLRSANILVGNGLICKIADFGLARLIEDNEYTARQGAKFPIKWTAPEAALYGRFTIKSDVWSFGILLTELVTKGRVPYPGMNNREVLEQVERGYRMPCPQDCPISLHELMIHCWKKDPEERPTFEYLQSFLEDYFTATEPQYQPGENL

SMILES | IC50
NC(=O)c1ccc(-c2ccc3ncc(-c4cccnc4)n3n2)cc1 [Compound 426, 4-[3-(3-pyridyl)imidazo [1,2-b]pyridazin-6-yl]benzamide] | 11.2 µM
Fc1ccc(Cc2ccc3ncc(-c4ccncc4)n3n2)cc1 [Compound 429, 6-[(4-fluorophenyl)methyl]-3-(4-pyridyl)imidazo [1,2-b]pyridazine] | 1.45 µM
Nc1cccc(-c2ccc3ncc(-c4ccc5c(c4)OCO5)n3n2)c1 [Compound 430, 3-[3-(1,3-benzodioxol-5-yl)imidazo[1,2-b]pyridazin-6-yl]aniline] | 0.843 µM
c1cc(-c2ccc3ncc(-c4ccc5c(c4)OCO5)n3n2)co1 [Compound 431, 3-(1,3-benzodioxol-5-yl)-6-(3-furyl) imidazo[1,2-b]pyridazine] | 1.6 µM
COc1ccc(-c2ccc3ncc(-c4ccc(CO)cc4)n3n2)cc1OC [Compound 432, [4-[6-(3,4-dimethoxyphenyl)imidazo[1,2-b]pyridazin-3-yl]phenyl] methanol] | 3.94 µM
OCc1ccc(-c2cnc3ccc(-c4cccc(O)c4)nn23)cc1 [Compound 435, 3-[3-[4-(hydroxymethyl)phenyl]imidazo [1,2-b]pyridazin-6-yl]phenol] | 1.14 µM
COc1ccc(-c2ccc3ncc(-c4cccc(CO)c4)n3n2)cc1OC [Compound 436, [3-[6-(3,4-dimethoxyphenyl)imidazo[1,2-b]pyridazin-3-yl]phenyl] methanol] | 0.749 µM
CNc1ccc2ncc(-c3ccsc3)n2n1 [Compound 437_0074, N-methyl-3-(3-thienyl)imidazo [1,2-b]pyridazin-6-amine] | 4.23 µM
CNc1ccc2ncc(-c3ccc(OC)c(OC)c3)n2n1 [Compound 437_0079, 3-(3,4-dimethoxyphenyl)-N-methyl-imidazo[1,2-b]pyridazin-6-amine] | 1.24 µM
CNc1ccc2ncc(-c3cccc(NC(C)=O)c3)n2n1 [Compound 437_0081, N-[3-[6-(methylamino)imidazo[1,2-b]pyridazin-3-yl]phenyl] acetamide] | 1.75 µM
CNc1ccc2ncc(-c3ccc(OC)cc3)n2n1 [Compound 437_0280, 3-(4-methoxyphenyl)-N-methyl-imidazo[1,2-b]pyridazin-6-amine] | 4.16 µM
CNc1ccc2ncc(-c3cccc(O)c3)n2n1 [Compound 437_0284, 3-[6-(methyl-amino)imidazo[1,2-b]pyridazin-3-yl]phenol] | 2.18 µM
CNc1ccc2ncc(-c3ccc(OC)nc3)n2n1 [Compound 437_0311, 3-(6-methoxy-3-pyridyl)-N-methyl-imidazo[1,2-b]pyridazin-6-amine] | 4.46 µM
CNc1ccc2ncc(-c3ccc(F)cc3)n2n1 [Compound 437_0339, 3-(4-fluoro-phenyl)-N-methyl-imidazo[1,2-b]pyridazin-6-amine] | 3.26 µM
CNc1ccc2ncc(-c3ccccc3O)n2n1 [Compound 437_0340, 2-[6-(methylamino)imidazo[1,2-b]pyridazin-3-yl]phenol] | 1.13 µM
CNc1ccc2ncc(-c3cccc(C(=O)N(C)C)c3)n2n1 [Compound 437_0349, N,N-dimethyl-3-[6-(methylamino)imidazo[1,2-b]pyridazin-3-yl]benzamide] | 2.94 µM
CNc1ccc2ncc(-c3cnn(C)c3)n2n1 [Compound 437_7468, N-methyl-3-(1-methylpyrazol-4-yl)imidazo[1,2-b]pyridazin-6-amine] | 5.63 µM
c1ccc(-c2ccc3ncc(-c4ccc5c(c4)OCO5)n3n2)cc1 [Compound 439, 3-(1,3-benzodioxol-5-yl)-6-phenyl-imidazo[1,2-b]pyridazine] | 3.09 µM
COc1ccc(-c2cnc3ccc(-c4cccs4)nn23)cc1OC [Compound 441, 3-(3,4-dimethoxy-phenyl)-6-(2-thienyl)imidazo [1,2-b]pyridazine] | 0.211 µM
CNc1cncc(-c2ccc3[nH]ccc3c2)n1 [Compound 445_0204, 6-(1H-indol-5-yl)-N-methyl-pyrazin-2-amine] | 14.9 µM
Cn1cc(-c2ccc3ncc(-c4ccncc4)n3n2)cn1 [Compound 447, 6-(1-methylpyrazol-4-yl)-3-(4-pyridyl)imidazo [1,2-b]pyridazine] | 30 µM
OCc1ccc(-c2ccc3ncc(-c4ccc(CO)cc4)n3n2)cc1 [Compound 449, [4-[3-[4-(hydroxymethyl)phenyl]imidazo [1,2-b]pyridazin-6-yl]phenyl] methanol] | 1.04 µM
COc1cc(-c2cnc3ccc(-c4ccc5c(c4)OCO5)nn23)ccc1O [Compound 450, 4-[6-(1,3-benzodioxol-5-yl)imidazo[1,2-b]pyridazin-3-yl]-2-methoxy-phenol] | 0.2 µM
COc1cncc(-c2ccc3ncc(-c4cccs4)n3n2)c1 [Compound 452, 6-(5-methoxy-3-pyridyl)-3-(2-thienyl)imidazo [1,2-b]pyridazine] | 2.86 µM
c1csc(-c2ccc3ncc(-c4cccs4)n3n2)c1 [Compound 453, 3,6-bis(2-thienyl)imidazo [1,2-b]pyridazine] | 4.89 µM
COc1cc(-c2cnc3ccc(-c4cc(OC)c(OC)c(OC)c4)nn23)ccc1O [Compound 458, 2-methoxy-4-[6-(3,4,5-trimethoxyphenyl)imidazo[1,2-b]pyridazin-3-yl]phenol] | 1.81 µM
OCc1cccc(-c2ccc3ncc(-c4ccoc4)n3n2)c1 [Compound 459, [3-[3-(3-furyl)imidazo[1,2-b]pyridazin-6-yl]phenyl] methanol] | 7.33 µM
NC(=O)c1ccc(-c2cnc3ccc(Cc4ccccc4)nn23)cc1 [Compound 460, 4-(6-benzylimidazo [1,2-b]pyridazin-3-yl)benzamide] | 0.711 µM

Continued, values first:

IC50 | SMILES
1.23 µM | CC(=O)c1cccc(-c2cnc3ccc(-c4cccnc4)nn23)c1 [Compound 427, 1-[3-[6-(3-pyridyl)imidazo [1,2-b]pyridazin-3-yl]phenyl] ethanone]
1.78 µM | COc1cccc(-c2ccc3ncc(-c4cccc(C(C)=O)c4)n3n2)c1 [Compound 428, 1-[3-[6-(3-methoxyphenyl)imidazo[1,2-b]pyridazin-3-yl]phenyl] ethanone]
0.393 µM | CN(C)CCNC(=O)c1cccc(-c2ccc3ncc(-c4ccc5c(c4)OCO5)n3n2)c1 [Compound 433, 3-[3-(1,3-benzodioxol-5-yl)imidazo[1,2-b]pyridazin-6-yl]-N-(2-dimethylamino-ethyl)benzamide]
0.525 µM | CC(=O)Nc1cccc(-c2cnc3ccc(-c4ccc(F)c(Cl)c4)nn23)c1 [Compound 434, N-[3-[6-(3-chloro-4-fluoro-phenyl)imidazo [1,2-b]pyridazin-3-yl]phenyl] acetamide]
0.582 µM | CC(=O)c1cccc(-c2ccc3ncc(-c4cccc(C(C)=O)c4)n3n2)c1 [Compound 437, 1-[3-[3-(3-acetylphenyl)imidazo[1,2-b]pyridazin-6-yl]phenyl] ethanone]
1.16 µM | CN(C)CCNC(=O)c1cccc(-c2ccc3ncc(-c4cccs4)n3n2)c1 [Compound 438, N-(2-dimethyl-aminoethyl)-3-[3-(2-thienyl)imidazo[1,2-b]pyridazin-6-yl]benzamide]
1.81 µM | Oc1cccc(-c2ccc3ncc(-c4cccnc4)n3n2)c1 [Compound 440, 3-[3-(3-pyridyl)imidazo [1,2-b]pyridazin-6-yl]phenol]
0.987 µM | Oc1cccc(-c2ccc3ncc(-c4cccc(O)c4)n3n2)c1 [Compound 442, 3-[3-(3-hydroxyphenyl)imidazo[1,2-b]pyridazin-6-yl]phenol]
2.24 µM | CC(=O)Nc1cccc(-c2ccc3ncc(-c4ccc(CO)cc4)n3n2)c1 [Compound 443, N-[3-[3-[4-(hydroxymethyl)phenyl]imidazo [1,2-b]pyridazin-6-yl]phenyl] acetamide]
4.81 µM | CC(=O)c1cccc(-c2cnc3ccc(-c4ccc(F)cc4)nn23)c1 [Compound 444, 1-[3-[6-(4-fluorophenyl)imidazo[1,2-b]pyridazin-3-yl]phenyl] ethanone]
1.33 µM | CNC(=O)c1cccc(-c2ccc3ncc(-c4cccc(NC(C)=O)c4)n3n2)c1 [Compound 445, 3-[3-(3-acetamido-phenyl)imidazo [1,2-b]pyridazin-6-yl]-N-methyl-benzamide]
1.93 µM | OCc1cccc(-c2ccc3ncc(-c4ccccc4)n3n2)c1 [Compound 446, [3-(3-phenylimidazo [1,2-b]pyridazin-6-yl)phenyl] methanol]
3.93 µM | CN(C)CCNC(=O)c1cccc(-c2ccc3ncc(-c4cccc(OC(F)(F)F)c4)n3n2)c1 [Compound 448, N-(2-dimethylamino-ethyl)-3-[3-[3-(trifluoromethoxy)phenyl]imidazo [1,2-b]pyridazin-6-yl]benzamide]
0.416 µM | CC(=O)c1cccc(-c2cnc3ccc(-c4cccs4)nn23)c1 [Compound 451, 1-[3-[6-(2-thienyl)imidazo [1,2-b]pyridazin-3-yl]phenyl] ethanone]
1.76 µM | CN(C)CCNC(=O)c1cccc(-c2cnc3ccc(-c4cnn(C)c4)nn23)c1 [Compound 454, N-(2-dimethyl-aminoethyl)-3-[6-(1-methyl-pyrazol-4-yl)imidazo[1,2-b]pyridazin-3-yl]benzamide]
2.02 µM | CN(C)CCNC(=O)c1cccc(-c2cnc3ccc(-c4ccc5c(c4)OCO5)nn23)c1 [Compound 455, 3-[6-(1,3-benzodioxol-5-yl)imidazo[1,2-b]pyridazin-3-yl]-N-(2-dimethylamino-ethyl)benzamide]
4.15 µM | CN(C)CCNC(=O)c1cccc(-c2cnc3ccc(-c4cccc(C(N)=O)c4)nn23)c1 [Compound 456, 3-[3-[3-(2-dimethylamino-ethylcarbamoyl)phenyl]imidazo [1,2-b]pyridazin-6-yl]benzamide]
0.352 µM | O=C(NCCO)c1cccc(-c2ccc3ncc(-c4cccc(O)c4)n3n2)c1 [Compound 457, N-(2-hydroxyethyl)-3-[3-(3-hydroxyphenyl)imidazo[1,2-b]pyridazin-6-yl]benzamide]

— patent US10688093B2, “Methods, compositions, and uses of novel Fyn kinase inhibitors” (priority 2015, dated 2020)
